From BindingDB's records for doi:10.1074/jbc.M113.480210 (University of Copenhagen, 2013)

Tests used:
Assay in all cases: Two-electrode Voltage Clamp Electrophysiology
Details in all cases: pH 7.4; 25 °C
[1] = biological target: Glutamate receptor ionotropic, NMDA 2B (Rat, UniProt Q00960+Q62683)
Experimental: (§1) Two-electrode voltage clamp (TEVC) recordings were performed on Xenopus oocytes at room temperature 3-6 days postinjection using an OC-725C TEVC amplifier (Warner Instruments, Hamden, CT). […] Voltage and current electrodes were filled with 0.3 and 3 M KCl, respectively. During recordings, oocytes were placed in a recording chamber and perfused with the extracellular recording solution comprised of 90 mM NaCl, 1 mM KCl, 10 mM HEPES, 0.5 mM BaCl2, and 0.01 mM EDTA (pH 7.4 with NaOH). Current responses were recorded at a holding potential of -40 and -60 mV for GluN1/N2 and GluN1/N3 receptors, respectively. Compounds were dissolved in extracellular recording solution and applied to the oocyte by gravity-driven perfusion using a computer-controlled 8-modular valve positioner (Digital MVP, Hamilton, Reno, NV).

[2] = biological target: Glutamate receptor ionotropic, NMDA 2A (Rat, UniProt Q00959+Q62683)
Sequence of Glutamate receptor ionotropic, NMDA 2A (Q00959 whole entry, other chains not shown): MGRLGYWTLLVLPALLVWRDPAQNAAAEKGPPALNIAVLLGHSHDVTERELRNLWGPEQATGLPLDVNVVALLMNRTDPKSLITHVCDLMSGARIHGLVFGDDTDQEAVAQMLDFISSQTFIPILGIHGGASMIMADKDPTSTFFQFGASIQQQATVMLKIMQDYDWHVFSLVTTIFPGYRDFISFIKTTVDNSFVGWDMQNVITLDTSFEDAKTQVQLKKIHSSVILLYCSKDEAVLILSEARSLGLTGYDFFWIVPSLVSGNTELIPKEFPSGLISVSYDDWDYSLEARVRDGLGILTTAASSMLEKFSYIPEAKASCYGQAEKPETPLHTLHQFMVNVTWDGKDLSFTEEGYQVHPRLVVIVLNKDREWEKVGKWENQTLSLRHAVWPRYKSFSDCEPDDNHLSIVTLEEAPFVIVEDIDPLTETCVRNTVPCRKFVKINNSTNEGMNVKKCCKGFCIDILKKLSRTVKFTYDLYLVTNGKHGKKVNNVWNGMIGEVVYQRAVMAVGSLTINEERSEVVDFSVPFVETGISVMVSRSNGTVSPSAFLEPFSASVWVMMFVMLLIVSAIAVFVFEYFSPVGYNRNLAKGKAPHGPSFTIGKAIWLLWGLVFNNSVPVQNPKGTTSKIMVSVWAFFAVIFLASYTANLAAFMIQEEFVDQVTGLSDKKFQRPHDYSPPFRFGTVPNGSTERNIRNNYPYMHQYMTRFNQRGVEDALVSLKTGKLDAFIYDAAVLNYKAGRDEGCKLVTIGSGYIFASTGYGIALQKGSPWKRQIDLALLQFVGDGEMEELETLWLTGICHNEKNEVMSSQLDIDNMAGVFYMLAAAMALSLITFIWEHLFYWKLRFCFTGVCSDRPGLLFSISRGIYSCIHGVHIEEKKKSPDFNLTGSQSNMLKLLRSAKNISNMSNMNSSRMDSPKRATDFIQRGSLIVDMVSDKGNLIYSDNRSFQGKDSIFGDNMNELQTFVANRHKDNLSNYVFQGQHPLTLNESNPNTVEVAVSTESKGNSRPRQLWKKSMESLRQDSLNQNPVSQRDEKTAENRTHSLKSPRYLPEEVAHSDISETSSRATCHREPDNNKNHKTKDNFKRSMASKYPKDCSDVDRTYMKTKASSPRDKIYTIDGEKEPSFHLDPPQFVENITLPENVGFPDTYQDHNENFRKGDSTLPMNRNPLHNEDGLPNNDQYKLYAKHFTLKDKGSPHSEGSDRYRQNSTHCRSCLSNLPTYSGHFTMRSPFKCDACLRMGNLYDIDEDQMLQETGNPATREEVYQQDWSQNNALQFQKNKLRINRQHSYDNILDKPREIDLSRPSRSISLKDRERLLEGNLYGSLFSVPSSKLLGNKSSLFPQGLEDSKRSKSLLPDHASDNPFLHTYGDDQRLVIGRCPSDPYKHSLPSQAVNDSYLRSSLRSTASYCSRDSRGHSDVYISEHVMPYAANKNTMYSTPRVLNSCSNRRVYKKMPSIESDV
Experimental: as §1

[3] = biological target: Glutamate receptor ionotropic, NMDA 2D (Rat, UniProt Q62645+Q62683)
Experimental: as §1

[4] = biological target: Glutamate receptor ionotropic, NMDA 2C (Rat, UniProt Q00961+Q62683)
Experimental: as §1

Glutamate receptor 1 = Glutamate receptor 1 (Rattus norvegicus, UniProt P19490)
Sequence of Glutamate receptor 1 (P19490 whole entry): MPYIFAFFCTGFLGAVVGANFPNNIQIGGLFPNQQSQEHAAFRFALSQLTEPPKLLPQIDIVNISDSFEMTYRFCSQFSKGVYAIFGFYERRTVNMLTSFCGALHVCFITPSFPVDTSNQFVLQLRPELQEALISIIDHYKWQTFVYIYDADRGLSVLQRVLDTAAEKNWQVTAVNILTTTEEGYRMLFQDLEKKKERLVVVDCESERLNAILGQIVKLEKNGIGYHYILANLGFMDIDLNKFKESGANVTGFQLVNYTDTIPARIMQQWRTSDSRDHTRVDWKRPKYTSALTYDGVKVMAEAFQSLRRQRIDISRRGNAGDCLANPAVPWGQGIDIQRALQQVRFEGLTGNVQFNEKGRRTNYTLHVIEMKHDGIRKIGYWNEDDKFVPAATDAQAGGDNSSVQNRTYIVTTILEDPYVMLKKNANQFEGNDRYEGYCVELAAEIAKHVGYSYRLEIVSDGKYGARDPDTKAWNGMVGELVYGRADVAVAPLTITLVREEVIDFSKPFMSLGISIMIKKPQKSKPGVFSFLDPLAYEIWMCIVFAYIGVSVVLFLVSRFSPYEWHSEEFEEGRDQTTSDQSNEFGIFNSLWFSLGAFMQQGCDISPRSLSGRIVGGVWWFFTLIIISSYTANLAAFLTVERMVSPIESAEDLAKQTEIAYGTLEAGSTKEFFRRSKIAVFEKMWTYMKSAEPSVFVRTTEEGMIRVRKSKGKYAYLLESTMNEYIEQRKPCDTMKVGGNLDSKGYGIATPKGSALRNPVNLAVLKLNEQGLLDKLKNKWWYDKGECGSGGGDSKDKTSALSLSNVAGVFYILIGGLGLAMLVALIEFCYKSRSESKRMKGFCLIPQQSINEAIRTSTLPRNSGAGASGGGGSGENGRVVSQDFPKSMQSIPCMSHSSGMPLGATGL
Experimental: as §1

[5] = biological target: Glutamate receptor ionotropic, NMDA 1 [F484A,T518L]/3A (Rattus norvegicus, UniProt P35439+Q9R1M7, F484A/T518L)
Sequence of Glutamate receptor ionotropic, NMDA 1 [F484A,T518L]/3A (Q9R1M7 24-1135 limits assumed, other chains not shown): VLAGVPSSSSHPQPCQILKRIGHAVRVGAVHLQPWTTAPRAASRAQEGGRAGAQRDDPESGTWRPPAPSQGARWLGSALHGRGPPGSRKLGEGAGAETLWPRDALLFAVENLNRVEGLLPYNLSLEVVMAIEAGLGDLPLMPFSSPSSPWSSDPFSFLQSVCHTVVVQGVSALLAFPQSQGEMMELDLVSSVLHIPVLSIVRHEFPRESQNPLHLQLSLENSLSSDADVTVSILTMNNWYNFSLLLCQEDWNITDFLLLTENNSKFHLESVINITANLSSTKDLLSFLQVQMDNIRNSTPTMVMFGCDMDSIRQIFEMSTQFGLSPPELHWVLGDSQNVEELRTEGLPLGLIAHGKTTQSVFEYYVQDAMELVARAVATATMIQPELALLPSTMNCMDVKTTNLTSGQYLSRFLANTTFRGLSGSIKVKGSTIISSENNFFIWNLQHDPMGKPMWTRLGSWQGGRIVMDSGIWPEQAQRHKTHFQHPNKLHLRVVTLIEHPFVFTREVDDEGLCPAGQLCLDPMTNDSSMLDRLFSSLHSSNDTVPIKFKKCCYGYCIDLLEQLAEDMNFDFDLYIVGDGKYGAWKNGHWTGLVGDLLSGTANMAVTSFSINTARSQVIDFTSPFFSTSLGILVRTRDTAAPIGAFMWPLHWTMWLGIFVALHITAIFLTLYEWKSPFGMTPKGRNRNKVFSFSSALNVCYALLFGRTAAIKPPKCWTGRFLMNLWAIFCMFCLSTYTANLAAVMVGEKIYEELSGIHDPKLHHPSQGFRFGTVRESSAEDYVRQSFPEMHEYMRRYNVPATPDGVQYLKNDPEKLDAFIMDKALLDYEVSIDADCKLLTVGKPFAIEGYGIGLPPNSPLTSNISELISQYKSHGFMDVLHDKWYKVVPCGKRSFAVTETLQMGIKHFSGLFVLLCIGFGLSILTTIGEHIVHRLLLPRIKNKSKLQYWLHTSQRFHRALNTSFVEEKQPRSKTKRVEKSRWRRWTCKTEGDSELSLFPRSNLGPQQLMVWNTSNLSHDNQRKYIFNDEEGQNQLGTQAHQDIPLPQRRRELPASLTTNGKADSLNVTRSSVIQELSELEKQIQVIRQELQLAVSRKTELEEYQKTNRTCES
Experimental: as §1

[6] = biological target: Glutamate receptor ionotropic, NMDA 1 [F484A,T518L]/3B (Rattus norvegicus, UniProt P35439+Q8VHN2, F484A/T518L)
Sequence of Glutamate receptor ionotropic, NMDA 1 [F484A,T518L]/3B (Q8VHN2 25-1002 limits assumed, other chains not shown): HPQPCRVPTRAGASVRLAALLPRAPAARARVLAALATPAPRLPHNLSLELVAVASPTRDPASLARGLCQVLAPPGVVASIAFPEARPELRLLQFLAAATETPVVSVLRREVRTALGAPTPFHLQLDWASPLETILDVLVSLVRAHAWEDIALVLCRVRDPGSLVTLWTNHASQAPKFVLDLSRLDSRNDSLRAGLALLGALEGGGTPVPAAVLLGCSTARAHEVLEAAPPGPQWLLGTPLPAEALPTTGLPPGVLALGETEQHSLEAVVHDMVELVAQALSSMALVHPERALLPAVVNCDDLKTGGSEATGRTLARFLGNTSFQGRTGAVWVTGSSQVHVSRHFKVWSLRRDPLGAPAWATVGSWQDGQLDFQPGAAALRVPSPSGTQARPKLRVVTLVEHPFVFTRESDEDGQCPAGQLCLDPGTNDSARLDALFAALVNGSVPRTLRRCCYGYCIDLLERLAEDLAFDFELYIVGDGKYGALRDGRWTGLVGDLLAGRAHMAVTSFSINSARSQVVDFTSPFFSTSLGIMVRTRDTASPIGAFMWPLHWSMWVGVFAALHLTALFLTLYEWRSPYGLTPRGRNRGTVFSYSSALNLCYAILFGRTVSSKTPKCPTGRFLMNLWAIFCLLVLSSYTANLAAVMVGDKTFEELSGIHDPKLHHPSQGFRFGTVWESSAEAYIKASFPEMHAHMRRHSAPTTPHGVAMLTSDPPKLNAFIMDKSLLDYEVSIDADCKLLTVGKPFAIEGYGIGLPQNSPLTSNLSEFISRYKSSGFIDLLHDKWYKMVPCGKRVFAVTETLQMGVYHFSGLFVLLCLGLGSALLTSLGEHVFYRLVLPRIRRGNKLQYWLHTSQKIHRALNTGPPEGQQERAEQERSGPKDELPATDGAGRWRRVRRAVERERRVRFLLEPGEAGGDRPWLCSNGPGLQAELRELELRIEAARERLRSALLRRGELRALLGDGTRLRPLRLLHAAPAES
Experimental: as §1

Compound | Ki [1] | IC50 [2] | Ki [2] | Ki [3] | Ki [4] | IC50 (Glutamate receptor 1) | Ki (Glutamate receptor 1) | IC50 [5] | Ki [5] | IC50 [6] | Ki [6]
O=c1[nH]c2ccccc2n2c(S)nnc12 [1-thioxo-1,2-dihydro-[1,2,4]triazolo[4,3-a]-quinoxalin-4(5H)-one] | > 1300 nM | 770 nM | 560 nM | > 300 nM | > 800 nM | > 300 µM | > 180 µM | – | – | – | –
O=C(O)c1cc(O)c2c(Cl)cc(Cl)cc2n1 [5,7-Dichlorokynurenic acid (5,7-DCKA)] | – | 92 nM | 65 nM | – | – | – | – | 97 µM | 35 µM | > 300 µM | > 150 µM
